Test results: patent publication US20260124192A1, “COMPOUNDS, COMPOSITIONS, AND METHODS OF TREATING RNA VIRAL INFECTIONS” (priority 2024, published 2026)

Experiments:
SARS-CoV-2 USA-WA1/2020 [1] = experiment: SARS-CoV-2 CPE assay, Vero E6 (Method 2); assay type: cell-based; settings: Severe acute respiratory syndrome coronavirus 2, Vero C1008, 2% FBS
SARS-CoV-2 USA-WA1/2020 [2] = experiment: SARS-CoV-2 viral yield reduction (VYR) assay, Caco-2 (Method 2); assay type: cell-based; settings: Severe acute respiratory syndrome coronavirus 2, 2% FBS
Description: The antiviral assays were cell line based and consisted in transfecting each of the viruses tested in a compatible cell line. Upon infection and after drug treatment, viral survival and cell toxicity were reported from the readout of three different assays: cytopathic effect (CPE), viral yield reduction (VYR), or immunofluorescence (IF).
After sufficient virus replication occurs (3 days for SARS-CoV-2), a sample of supernatant is taken from each infected well (three replicate wells are pooled) and tested immediately or held frozen at −80° C. for later virus titer determination. After maximum CPE is observed, the viable plates are stained with neutral red dye. The incorporated dye content is quantified as described above to generate the EC50 and CC50 values.
Serial 1/10 dilutions of virus are made and plated into 4 replicate wells containing fresh cell monolayers of Vero E6 cells. Plates are then incubated, and cells are scored for presence or absence of virus after distinct CPE is observed, and the CCID50 calculated using the Reed-Muench method (24). […] Dividing EC90 by the CC50 gives the SI value for this test.

[3] = tested on: SARS-CoV-2 Alpha (B.1.1.7); experiment: SARS-CoV-2 IF assay, HeLa-ACE2 (Method 1); assay type: cell-based; settings: 2% FBS
[4] = tested on: SARS-CoV-2 Delta (B.1.617.2); experiment: SARS-CoV-2 IF assay, HeLa-ACE2 (Method 1); assay type: cell-based; settings: 2% FBS
CoV229E = experiment: Anti-Coronavirus 229E cytoprotection (CPE) assay, MRC-5 (Method 3); assay type: cell-based, human Coronavirus 229E; settings: Human coronavirus 229E, MRC5, […], read-out: CoV229E - EC50 (μM)
[5] = Cytotoxicity, neutral red dye-uptake, HG23; assay type: cell-based; settings: human, HG23 cells, with Norwalk Virus CPE assay, not converted
Description: Compounds were tested in an assay medium containing 2% fetal bovine serum (FBS). Test compounds were added to cells prior to infection with virus at a multiplicity of infection (MOI) sufficient to induce visible cytopathic effect (CPE). […] Additionally, the EC90 was defined as the concentration required to achieve a 1 log10 reduction in viral titer. Dose-response curves depicting viral CPE (red line) and compound cytotoxicity (purple line) were generated to support these analyses.

[6] = tested on: MCF7 wild-type cell lines; experiment: MCF7 growth inhibition assay (Cell Titre Glo 2.0); assay type: cell-based; settings: Homo sapiens, MCF7, 120 h, read-out: MCF-7 IC50 (μM)
Description: The growth inhibition properties of inhibitors on MCF7 wild-type cell lines were evaluated using the Cell Titre Glo 2.0 cell viability reagent. The assay utilized 384-well black clear bottom plates with 20 μl of MCF7 wild-type cell suspension mixed with reference/test compounds and 20 μl of Cell Titre Glo 2.0 reagent. Cells were seeded at a density of 1000 cells/well in DMEM High Glucose culture media+10% Fetal Bovine Serum (FBS). Staurosporine and Camptothecin served as positive controls for confirming cytotoxicity at a concentration of 30 μM, and vehicle control of 1% DMSO was used to standardize conditions across all test points. The assay and culture media both contained 1% DMSO. Assays were conducted in duplicate for each concentration of the test compounds. The incubation period for the assay was set at 120 hours, after which growth inhibition was assessed. Using a multi-mode reader, the assay readout was based on luminescence measured in Relative Light Units (RLUs). The viability luminescence signal was monitored continually from the same wells over an extended period, allowing for detailed analysis of cell viability. Measurements were taken using an integration time ranging from 0.25 to 1 second across plates designated for various time points.
Cells were maintained and seeded in 384 […] plates, maintaining 1000 cells/well. Seeded plates were incubated at 37° C., 5% CO2 for 16-18 hours to ensure optimal cell adherence and growth. Post-incubation, reference, and test compounds were added carefully to the wells for further processing. Plates were incubated again at 37° C., 5% CO2 for 120 hours (5 days) to allow compound effects. This was followed by the addition of CTG reagent as per the kit's instruction protocol for 30 minutes and RLU data to be recorded. Post plate read data to be analyzed using GraphPad Prism for software IC50 value generation.
Next, the NCEs were tested for selective estrogen regulation modulation activity by using a growth inhibition assay. The assay is performed on MCF7 cells, which are derived from a hormone-dependent breast cancer that stops growing upon estrogen receptor inhibition. […] Staurosporine and Camptothecin served as positive controls for cytotoxicity and 1% DMSO as the vehicle control.

13 viruses and variants = experiment: organism not typed; assay type: cell-based; settings: read-out: antiviral activity (best EC50 per virus/strain/variant)
A549-ACE2 cells = settings: with CPE assays (SARS-CoV-2 WA1, Delta, OC43), not converted for FBS
MRC-5 cells = settings: human, 6 days
in vitro [7] = settings: human, CC50 (μM), A549-ACE2; with CPE assays (SARS-CoV-2 WA1, Delta, OC43); not converted for FBS
in vitro [8] = settings: human
in vitro [9] = settings: African green monkey, CC50 (μM), Vero 76; with CPE assays (SARS-CoV-2 WA1, Delta); not converted for FBS
in vitro [10] = settings: dog, CC50 (μM), MDCK; with Influenza B CPE assays
Cytotoxicity, XTT, MRC-5 = settings: human

`Cc1c(-c2ccc(O)cc2)n(Cc2ccc(OCCN3CCCCC3)cc2)c2ccc(O)cc12` [Pipendoxifene] showed an EC50 (SARS-CoV-2 USA-WA1/2020 [1]) of 520 nM, an EC50 (SARS-CoV-2 USA-WA1/2020 [2]) of 540 nM and an EC50 ([3]; SARS-CoV-2 Alpha (B.1.1.7)) of 1200 nM. It also gave an EC50 ([3]; Severe acute respiratory syndrome coronavirus 2, HeLa-ACE2, SARS-CoV-2 Alpha (B.1.1.7)) of 830 nM, an EC50 ([4]; SARS-CoV-2 Delta (B.1.617.2)) of 677 nM and an EC50 ([4]; Severe acute respiratory syndrome coronavirus 2, HeLa-ACE2, SARS-CoV-2 Delta (B.1.617.2)) of 740 nM. For the same compound, the EC50 (CoV229E) was 0.11 to 0.52 µM, the CC50 [5] was 18000 nM and the IC50 [6] was 0.00064 µM. The EC50 (13 viruses and variants) was under 10000 nM, the CC50 (A549-ACE2 cells) was over 15000 nM and the CC50 (MRC-5 cells) was over 1000 nM. It also gave a CC50 (in vitro [7]) of over 10 µM, a CC50 (in vitro [8]) of 1000 nM and a CC50 (in vitro [9]) of 2.9 µM. It also gave a CC50 (in vitro [10]) of 9.8 µM and a CC50 at 6 days (Cytotoxicity, XTT, MRC-5) of over 1000 nM.
